Measurements as given in patent publication US20030100494A1, “Nerve protective drugs” (priority 1999, published 2003).
Non-standard residues stand in square brackets, D forms with d. Residues, ends and D or L forms follow the SMILES beside them. dTrp(2-Me) = Cc1[nH]c2ccccc2c1C[C@@H](N)C(=O)O; d2Nal = N[C@H](Cc1ccc2ccccc2c1)C(=O)O

Legend:
[1] = test system: rat ischemia-reperfusion cerebral infarction models; test: rat ischemia-reperfusion cerebral infarction model after transient obstruction of middle cerebral artery; assay type: in vivo
Method: Preventive and therapeutic effect of KP-102 in rat ischemia-reperfusion cerebral infarction models after transient obstruction of middle cerebral artery
The effect of the growth hormone secretion promoting substance was evaluated using ischemia-reperfusion cerebral infarction models, which are general pathological models of diseases involving degeneration or death of nerve cells, such as cerebral ischemia, cerebral infarction and cerebral edema. KP-102 was used as a typical example of the growth hormone secretion promoting substance.
KP-102 (synthetic product) was dissolved in physiological saline (JP) to a concentration of 24 μg/ml. Other reagents used were halothane (JP: Takeda Chem. Ind.), triphenyltetrazolium chloride (TTC, Nacalai tesque), Dulbecco PBS(−) (Nissui Pharmaceutical) and low viscosity dental impression silicone (XANTOPRENRL, imported by Hereus Dental Material, Osaka). A 1% TTC solution was prepared by dissolving TTC in an isotonic phosphate buffer solution (pH 7.4) which had been prepared by dissolving PBS(−) powder in distilled water.
Male Wistar rats (Charles River Japan, INC.), 9 weeks old and weighing about 300 g, were used as experimental animals.
Obstruction of the middle cerebral artery was performed in accordance with the method of Koizumi et al. (Jpn. J. Stroke (1986)8:1-8) and the method of Longa et al. (Stroke (1989)20:84-91). Anesthesia was performed with 2% halothane in a 30% oxygen/70% nitrous oxide mixed gas. A cannula for administration of a test material had been inserted into the right femoral vein, and the other end of the cannula delivered to the poll. After several hours or more, the animals were anesthetized again, and set in a supine position. A median incision of the neck was made, and connective tissues around the right common carotid artery, the internal carotid artery, and the external carotid artery were ablated. The distal end of the external carotid artery and the external carotid artery were ligated with a suture, and blood flow in the common carotid artery was blocked with a clip. The following procedure was performed, with measures for prevention of bleeding being taken: A small incision was made in the external carotid artery, and a plug comprising a 5 mm front end of a surgical 4-0 nylon thread coated with dental silicone was inserted toward the internal carotid artery as far as a site where a slight resistance was felt. As a result, the middle cerebral artery (hereinafter referred to as MCA) was occluded, at its point of origin, with the plug. The plug was fixed in the internal carotid artery with a clip. The incision wound was closed and anesthesia was stopped to awake the animals. Anesthesia was performed again 70 minutes after MCA occlusion, the plug was detached 75 minutes later to restore blood flow in MCA, and the end of the external carotid artery proximal to the incision site was closed for prevention of bleeding. Blood flow in the common carotid artery was restored 10 minutes later. The incision site of the skin was closed with a Michel needle, and the animals were recovered from anesthesia.
The cannula for administration of the test material was connected to a free moving device (TCS2-21, Tsumura). […]

[2] = influence on blood pressure and heart rate; settings: in vivo
[3] = test system: Rat hippocampal nerve cells; test: ionomycin-induced death of cultured rat hippocampal nerve cells (WST-8 cell survival rate); settings: for inhibition of cell death induced by ionomycin at a single concentration: each 0.1 μM, 3 μM ionomycin, FIGS. 6a and 6b
Method: The solution was used after dilution to predetermined concentrations with distilled water for injection (JP, Otsuka Pharmaceutical) containing 1 mg/mL of bovine serum albumin (SIGMA). Rat type ghrelin (Peptide Institute) was used after dilution to predetermined concentrations with water for injection containing 1 mg/mL of bovine serum albumin. Other reagents used were L-15 culture medium, D-MEM/F-12 culture medium, MEM culture medium, Neuro Basal culture medium, B-27 supplement, horse serum, newborn calf serum, L-glutamine (all of the foregoing products of GIBCO), L-cysteine, ionomycin, calf serum albumin, DNase I (all of the foregoing products of SIGMA), glucose, viable cell count determination reagent SF (all of the foregoing products of Nacalai tesque), and papain (Worthington Biochemical).
Animals used were fetal rats on the 20th fetal day gestated in Wistar/ST definitively pregnant rats (15-18 days pregnant, Japan SLC).
Rat hippocampal nerve cells were isolated in accordance with the method of Hatanaka et al. (Hatanaka, H. and Tsukui, H., Dev. Brain. Res. 30(1986)47). Brains were removed from Wistar/ST fetal rats (20 fetal days), and soaked in cold L-15 medium. The meninges were ablated under microscope, and the hippocampus was cut out. Hippocampal tissue was transferred into a test tube containing the L-15 medium, and the test tube was centrifuged for 3 minutes at 700 rpm. Then, the supernatant was removed, and phosphate buffer (pH 7.2) containing papain (0.5 mg/mL), bovine serum albumin (0.2 mg/mL), cysteine (0.2 mg/mL), glucose (5 mg/mL) and DNase I (0.01%) was added, followed by incubating the mixture for 15 minutes at 37° C. Then, horse serum was added, and the mixture was centrifuged for 3 minutes at 700 rpm. Then, the supernatant was removed, D-MEM/F-12 medium was added, and the cells were dispersed by pipetting. After centrifugation for 5 minutes at 700 rpm, the dispersed cells were redispersed in D-MEM/F-12 medium containing 5% newborn calf serum and 5% horse serum, and inoculated in a polyethyleneimine-coated 48-well culture plate (Nunc) at a rate of 4×10^5 cells/cm^2. The cells were cultured in a culture incubator (37° C., 5% CO2-95% air). On the 2nd day of culturing, the culture medium was replaced by Neuro Basal medium containing 2 mM of glutamine and B-27 supplement. Then, the medium was replaced at intervals of 4 days.
Cells on the 14th day of culturing were used in experiments. The culture medium was replaced by a B-27-free MEM medium, and the cells were incubated for 30 minutes. Then, a solvent (dimethyl sulfoxide) and a test compound were added, and the system was incubated for 30 minutes (procedure 1). Then, 3 μM of ionomycin was added, and the mixture was incubated for 30 minutes (procedure 2). The culture medium was washed, and replaced by Neuro Basal medium containing B-27 supplement, and the system was cultured for 18 hours (procedure 3). In examining the effect of post-treatment, the solvent and the test compound were not added in procedure 1, but added 30 minutes after replacement of the medium in procedure 3.

[4] = KP-102 total 0.16 mg/kg i.v., 72 hours after reperfusion, FIG. 1

## C[C@H](NC(=O)[C@@H](Cc1ccc2ccccc2c1)NC(=O)[C@@H](C)N)C(=O)N[C@@H](Cc1c[nH]c2ccccc12)C(=O)N[C@H](Cc1ccccc1)C(=O)N[C@@H](CCCCN)C(N)=O [KP-102, D-alanyl-3-(2-naphthalenyl)-D-alanyl-L-alanyl-L-tryptophyl-D-phenylalanyl-L-lysineamide] (H-[dA][d2Nal]AW[dF]K-NH2)
[1]; [4]
  cerebral infarct size, cortex: effect of shrinking the infarct was observed
  cerebral infarct size, medulla: effect of shrinking the infarct was observed
[1]; vs control group, KP-102 total 0.16 mg/kg i.v. infusion beginning 30 minutes after MCA occlusion, 72 hours after reperfusion, FIG. 1, P<0.05 Mann-Whitney
  percent cerebral infarction volume for the entire cerebrum: significantly smaller
[1]; vs control group, KP-102 total 0.16 mg/kg i.v., 72 hours after reperfusion, FIG. 2, no significant differences, P=0.087
  percent edema: tendency toward suppression
[1]; vs control group, KP-102 total 0.16 mg/kg i.v., after reperfusion, normal score 33 points, FIG. 3, P<0.05
  score of neurologic symptoms: significantly higher
[2]
  influence on blood pressure: does not influence
  influence on heart rate: does not influence
[3]; applied 30 minutes after replacement of the ionomycin-treated culture medium, FIG. 4b
  inhibition of cell death, compound applied after ionomycin treatment: cell death inhibiting action was also confirmed
[3]; concentrations of 0.01 to 1 μM, dose-dependent, FIG. 4a
  inhibition of cell death induced by 3 μM of ionomycin, compound applied 30 minutes before ionomycin: inhibited cell death

## NCC(O)CNC(=O)[C@@H](Cc1ccc2ccccc2c1)NC(=O)CCN1C(=O)c2ccccc2CCc2ccccc21 (stereo partly drawn) [S-37555, N-[1(R)-(3-amino-2-hydroxy-propylcarbamoyl)-2-yl-ethyl]-3-(6-oxo-11,12-dihydro-6H-dibenzo[b,f]azocinn-5-yl)-propionamide]
[3]
  inhibition of cell death induced by ionomycin at a single concentration: clear action of inhibiting cell death

## CC(C)(C)C(=O)N1CCC[C@H]1C(=O)N[C@H](Cc1ccc2ccccc2c1)C(=O)NCC(O)CN (stereo partly drawn) [S-38855, N-(3-amino-2-hydroxypropyl)-2(R)-[1-(2,2-dimethylpropionyl)pyrrolidine-2(S)-carbonylamino]-3-naphthalen-2-yl-propionamide]
[3]
  inhibition of cell death induced by ionomycin at a single concentration: clear action of inhibiting cell death

## CCC(CC)C(=O)N1CCC[C@@H]1C(=O)N[C@@H](Cc1ccc2ccccc2c1)C(=O)NCC(O)CN (stereo partly drawn) [S-39100, N-(3-amino-2-hydroxypropyl)-2(S)-[1-(2-ethylbutyryl)pyrrolidine-2(R)-carbonylamino]-3-naphthalen-2-yl-propionamide]
[3]
  inhibition of cell death induced by ionomycin at a single concentration: clear action of inhibiting cell death

## Cc1[nH]c2ccccc2c1C[C@@H](NC(=O)[C@@H](N)Cc1c[nH]cn1)C(=O)N[C@@H](C)C(=O)N[C@@H](Cc1c[nH]c2ccccc12)C(=O)N[C@H](Cc1ccccc1)C(=O)N[C@@H](CCCCN)C(N)=O [hexarelin, L-histidyl-2-methyl-D-tryptophyl-L-alanyl-L-tryptophyl-D-phenylalanyl-L-lysineamide, reference compound] (H-H[dTrp(2-Me)]AW[dF]K-NH2)
[3]
  inhibition of cell death induced by ionomycin at a single concentration: clear action of inhibiting cell death
